Test results taken from patent publication US6506766B1 (Abbott Laboratories, priority 1998, dated 2003).

Legend:
[1] = target: T1, human progesterone receptor-A [PRA] isoform (Homo sapiens, UniProt P06401); assay: Radioligand binding with human progesterone receptor cytosol ([3H]-progesterone competition); settings: PRA cytosol expressed in insect SF21 cells, [3H]Prog ~0.8 nM, 4° C. overnight; Ki by Cheng-Prusoff, KL ~4.5 nM; read-out: Ki (nM) PR
T1 construct: host or cells: insect SF21 cells (baculovirus)
T1 sequence (P06401 1-769 isoform P06401-2): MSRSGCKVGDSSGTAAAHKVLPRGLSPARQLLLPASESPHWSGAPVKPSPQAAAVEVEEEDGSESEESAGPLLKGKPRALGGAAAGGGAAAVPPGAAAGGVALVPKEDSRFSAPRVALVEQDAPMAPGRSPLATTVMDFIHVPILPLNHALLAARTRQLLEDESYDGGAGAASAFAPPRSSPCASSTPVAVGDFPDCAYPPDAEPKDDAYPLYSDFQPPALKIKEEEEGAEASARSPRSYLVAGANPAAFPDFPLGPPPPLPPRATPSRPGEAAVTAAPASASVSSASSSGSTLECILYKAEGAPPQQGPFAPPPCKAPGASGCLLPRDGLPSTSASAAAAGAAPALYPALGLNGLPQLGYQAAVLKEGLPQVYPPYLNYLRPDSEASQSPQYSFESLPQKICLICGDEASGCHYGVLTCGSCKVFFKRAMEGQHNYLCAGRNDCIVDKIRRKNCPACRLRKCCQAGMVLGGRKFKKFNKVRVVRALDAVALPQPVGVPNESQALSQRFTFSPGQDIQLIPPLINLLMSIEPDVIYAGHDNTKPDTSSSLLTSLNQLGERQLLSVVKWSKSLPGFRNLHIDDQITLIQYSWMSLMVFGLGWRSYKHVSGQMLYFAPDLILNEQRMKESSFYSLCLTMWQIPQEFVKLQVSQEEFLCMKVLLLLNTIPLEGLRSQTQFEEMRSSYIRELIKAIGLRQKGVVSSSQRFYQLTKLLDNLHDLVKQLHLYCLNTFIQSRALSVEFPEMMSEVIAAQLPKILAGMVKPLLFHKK

[2] = target: T2, human glucocorticoid receptor-α [GRX] isoform (Homo sapiens, UniProt P04150); assay: Radioligand binding with human glucocorticoid receptor cytosol ([3H]-dexamethasone competition); settings: GRX cytosol expressed in insect SF21 cells, [3H]-Dex ~0.9 nM, 4° C. overnight; Ki by Cheng-Prusoff, KL ~[…]; read-out: Ki (nM) GR
T2 construct: host or cells: insect SF21 cells (baculovirus)
T2 sequence (P04150 1-777): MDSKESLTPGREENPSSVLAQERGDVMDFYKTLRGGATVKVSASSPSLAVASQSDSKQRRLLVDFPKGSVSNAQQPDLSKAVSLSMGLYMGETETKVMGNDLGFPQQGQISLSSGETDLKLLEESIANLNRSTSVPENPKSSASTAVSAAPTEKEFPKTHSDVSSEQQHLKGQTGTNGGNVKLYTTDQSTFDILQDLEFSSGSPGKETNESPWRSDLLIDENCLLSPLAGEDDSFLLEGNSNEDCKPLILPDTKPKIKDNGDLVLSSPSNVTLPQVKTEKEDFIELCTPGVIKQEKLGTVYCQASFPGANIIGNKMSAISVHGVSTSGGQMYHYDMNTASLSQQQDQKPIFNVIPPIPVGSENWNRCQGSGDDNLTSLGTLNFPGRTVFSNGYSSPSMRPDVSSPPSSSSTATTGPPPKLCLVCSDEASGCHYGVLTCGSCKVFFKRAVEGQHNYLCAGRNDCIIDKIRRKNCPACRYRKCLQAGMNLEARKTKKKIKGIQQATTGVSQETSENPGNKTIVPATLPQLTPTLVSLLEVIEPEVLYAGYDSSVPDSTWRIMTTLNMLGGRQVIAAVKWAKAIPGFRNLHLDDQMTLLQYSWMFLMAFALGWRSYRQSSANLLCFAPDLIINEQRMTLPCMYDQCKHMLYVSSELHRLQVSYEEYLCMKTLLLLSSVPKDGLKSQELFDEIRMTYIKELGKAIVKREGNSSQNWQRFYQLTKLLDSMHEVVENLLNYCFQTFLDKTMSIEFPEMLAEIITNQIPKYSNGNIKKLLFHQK

Row | Structure (SMILES) | Ki [1] [nM] | Ki [2] [nM]
1 | COc1cccc2c1-c1ccc3c(c1C(=Cc1cc(C)no1)O2)C(C)=CC(C)(C)N3 [Example 350, 10-Methoxy-5-(3-methylisoxazol-5-yl)methyidene-2,5-dihydro-5-phenyl-2,2,4-trimethyl-1H-[1]benzopyrano[3,4-f]quinoline] | ≥ 10000 | 6.22
2 | C=CCC1Oc2ccc(O)c(OC)c2-c2ccc3c(c21)C(C)=CC(C)(C)N3 (stereo not drawn) [Example 235, 10-Methoxy-9-hydroxy-5-(3-propenyl)-2,2,4-trimethyl-1H-2,5-dihydro-[1]benzopyrano[3,4-f]quinoline] | 155 | 0.94
3 | COc1cccc2c1-c1ccc3c(c1C(CCCN1C(=O)c4ccccc4C1=O)O2)C(C)=CC(C)(C)N3 (stereo not drawn) [Example 176] | > 10000 | 88
4 | COc1c(O)ccc2c1-c1ccc3c(c1[C@@H]([C@H]1C=CCCC1)O2)C(C)=CC(C)(C)N3 [Example 285] | 3760 | 436
5 | C=CCC1Oc2ccc(OC(=O)CCCC(=O)N3CCCCC3)c(OC)c2-c2ccc3c(c21)C(C)=CC(C)(C)N3 (stereo not drawn) [Example 439] | 202 | 1.2
6 | CCC(C)=C1Oc2cccc(OC)c2-c2ccc3c(c21)C(C)=CC(C)(C)N3 [Example 355, 10-Methoxy-5-(1-methylpropylidene)-2,5-dihydro-5-phenyl-2,2,4-trimethyl-1H-[1]benzopyrano[3,4-f]quinoline] | 4280 | 27
7 | C#CCOc1cccc2c1-c1ccc3c(c1C(c1ccccc1)O2)C(C)=CC(C)(C)N3 (stereo not drawn) [Example 75, 2,5-Dihydro-2,2,4-trimethyl-5-phenyl-10-(2-propynyloxy)-1H-[1]benzopyrano[3,4-f]quinoline] | 13800 | 7.3
8 | COCOC/C=C/C1Oc2cccc(OC)c2-c2ccc3c(c21)C(C)=CC(C)(C)N3 (stereo not drawn) [Example 183, (E) 2,5-Dihydro-10-methoxy-5-(3-methoxymethoxy-1-propenyl)-2,2,4-trimethyl-1H-[1]benzopyrano[3,4-f]quinoline] | ≥ 10000 | 38
9 | COc1cccc2c1-c1ccc3c(c1C(c1ccc(Cl)cc1)O2)C(C)=CC(C)(C)N3 (stereo not drawn) [Example 28, 5-(4-Chlorophenyl)-2,5-dihydro-10-methoxy-2,2,4-trimethyl-1H-[1]benzopyrano[3,4-f]quinoline] | 3270 | 4.7
10 | COc1cccc2c1-c1ccc3c(c1C(c1ccccc1)O2)C(C)=CC(C)(C)N3 (stereo not drawn) [Example 1, 2,5-Dihydro-10-methoxy-2,2,4-trimethyl-5-phenyl-1H-[1]benzopyrano[3,4-f]quinoline1H-[1]benzopyrano[3,4-f]quinoline] | ≥ 10000 | 8.6
11 | COc1cccc2c1-c1ccc3c(c1C(c1cc(C)cc(C(C)=O)c1)O2)C(C)=CC(C)(C)N3 (stereo not drawn) [Example 110, 1-[3-(2,5-Dihydro-10-methoxy-2,2,4-trimethyl-1H-[1]benzopyrano[3,4-f]quinolin-5-yl)-5-methylphenyl]ethanone] | ≥ 10000 | 5.6
12 | C=C(CO)CC1Oc2ccc(O)c(OC)c2-c2ccc3c(c21)C(C)=CC(C)(C)N3 (stereo not drawn) [Example 280, 2,5-Dihydro-9-hydroxy-10-methoxy-2,2,4-trimethyl-5-(2-hydroxymethyl-3-propenyl)-1H-[1]benzopyrano[3,4-f]quinoline] | ≥ 10000 | 1.6
13 | COc1c(O)ccc2c1-c1ccc3c(c1C(c1cc(F)cc(F)c1)O2)C(C)=CC(C)(C)N3 (stereo not drawn) [Example 249, 2,5-Dihydro-9-hydroxy-10-methoxy-2,2,4-trimethyl-5-(3,5-difluorophenyl)-1H-[1]benzopyrano[3,4-f]quinoline] | 488 | 0.8
14 | COc1cccc2c1-c1ccc3c(c1C(c1cccnc1)O2)C(C)=CC(C)(C)N3 (stereo not drawn) [Example 214, 2,5-Dihydro-10-methoxy-5-(3-pyridyl)-2,2,4-trimethyl-1H-[1]benzopyrano[3,4-f]quinoline] | ≥ 10000 | 5.7
15 | COc1c(O)ccc2c1-c1ccc3c(c1/C(=C/c1cccc(F)c1)O2)C(C)=CC(C)(C)N3 [Example 374, Z-5-(3-Fluorobenzylidenyl)-10-methoxy-9-hydroxy-2,2,4-trimethyl-2,5-dihydro-1H-[1]benzopyrano[3,4-f]quinoline] | 222 | 9
16 | COc1cccc2c1-c1ccc3c(c1C(c1cccc(F)c1)O2)C(C)=CC(C)(C)N3 (stereo not drawn) [Example 56, 5-(3-Fluorophenyl)-2,5-Dihydro-10-methoxy-2,2,4-trimethyl-1H-[1]benzopyrano[3,4-f]quinoline] | ≥ 10000 | 6.2
17 | C=CCCCC1Oc2ccc(O)c(OC)c2-c2ccc3c(c21)C(C)=CC(C)(C)N3 (stereo not drawn) [Example 387] | 169 | 0.65
18 | C=CCC1Oc2ccc(OCC#N)c(OC)c2-c2ccc3c(c21)C(C)=CC(C)(C)N3 (racemic) [Example 377, (+/−)2,5-Dihydro-9-cyanomethoxy-10-methoxy-2,2,4-trimethyl-5-allyl-1H-[1]benzopyrano[3,4-f]quinoline] | 3080 | 51
19 | CC1=CC(C)(C)Nc2ccc3c(c21)C(c1cc(Cl)cc(Cl)c1)Oc1cccc(O)c1-3 (stereo not drawn) [Example 80, 5-(3,5-Dichlorophenyl)-2,5-dihydro-2,2,4-trimethyl-1H-[1]benzopyrano[3,4-f]quinolin-10-ol] | ≥ 10000 | 168
20 | C/C=C\CC1Oc2ccc(O)c(OC)c2-c2ccc3c(c21)C(C)=CC(C)(C)N3 (stereo not drawn) [Example 282, (Z)2,5-Dihydro-9-hydroxy-10-methoxy-2,2,4-trimethyl-5-(2-butenyl)-1H-[1]benzopyrano[3,4-f]quinoline] | 42 | 0.5
21 | C=CCC1Oc2ccc(Br)c(OC)c2-c2ccc3c(c21)C(C)=CC(C)(C)N3 (stereo not drawn) [Example 300, 10-Methoxy-9-bromo-5-(3-propenyl)-2,2,4-trimethyl-1H-2,5-dihydro-[1]benzopyrano[3,4-f]quinoline] | 34.4 | 5.3
22 | COc1cccc2c1-c1ccc3c(c1C(c1ccc(F)c(C)c1)O2)C(C)=CC(C)(C)N3 (stereo not drawn) [Example 55] | ≥ 10000 | 8.2
23 | COc1c(Cl)ccc2c1-c1ccc3c(c1C(c1ccccc1)O2)C(C)=CC(C)(C)N3 (stereo not drawn) [Example 229, 9-Chloro-10-methoxy-5-phenyl-2,2,4-trimethyl-2,5-dihydro-1H[1]benzopyrano[3,4-f]quinoline] | 1340 | 34.7
24 | CC1=CC(C)(C)Nc2ccc3c(c21)C(Cc1ccccc1)Oc1ccc(O)c(Cl)c1-3 (racemic) [Example 429, (+/−)2,5-Dihydro-9-hydroxy-10-chloro-2,2,4-trimethyl-5-benzyl-1H-[1]benzopyrano[3,4-f]quinoline] | 29.1 | 4.1
25 | C=CCC1Oc2ccc(OC(=O)CCCNC(C)=O)c(OC)c2-c2ccc3c(c21)C(C)=CC(C)(C)N3 (racemic) [Example 344, (+/−)2,5-Dihydro-9-(4-acetamidobutanoyloxy)-10-methoxy-2,2,4-trimethyl-5-allyl-1H-[1]benzopyranol[3,4-f]quinoline] | 76.7 | 0.46
26 | COc1cccc2c1-c1ccc3c(c1[C@H]([C@H]1C=C(CO)CCC1)O2)C(C)=CC(C)(C)N3 (relative stereo) [Example 148] | ≥ 10000 | 2.8
27 | COc1cccc2c1-c1ccc3c(c1C(c1cc(C)cc(Br)c1)O2)C(C)=CC(C)(C)N3 (stereo not drawn) [Example 11, 5-(3-Bromo-5-methylphenyl)-2,5-dihydro-10-methoxy-2,2,4-trimethyl-1H-[1]benzopyrano[3,4-f]quinoline] | 288 | 4.4
